Source: US5470877A, “Uses of perillic acid methyl ester” (Wisconsin Alumni Research Foundation, priority 1994, dated 1995)

Columns and labels:
[1] = Tolerability in nude mice (National Cancer Institute); format: in vivo
Method: In an extension of our work, the National Cancer Institute has studied the effect of perillyl alcohol doses in nude mice using an oral bid ×14 day schedule. […] Perillyl alcohol was also administered in PEG400 at the same dose levels.

[2] = Acute oral toxicity in rats; format: in vivo, Wistar-Furth rat; conditions: 1:1 sesame oil
Method: When POH was given in an acute manner (a single oral dose, 1:1 mix with sesame oil, for 5 days), the following was observed: After 300 mg total POH dose, 2 out of 5 rats died within 24 hours. After a 200 mg total POH dose, 2 out of 5 rats died within 24 hours. After a 100 mg total POH dose, 5 out of 5 rats tolerated 5 days with weight loss.

HT29 cells = assay: Inhibition of HT29 colon adenocarcinoma cell growth/proliferation; format: cell-based, human
Method: (§1) We examined the effect of several of the terpenes on certain types of cell growth. […] Additionally, growth of HT29 (human colon adenocarcinoma) cells was inhibited by 80% by 1 mM perillyl alcohol.

[3] = Effect of dietary perillyl alcohol on serum cholesterol and lipids in rats; format: in vivo, Wistar-Furth rat
From the text: Twenty-one female, six-weeks-old, Wistar-Furth rats were divided into three different diet groups of seven rats each. One group was fed a control diet, one group was fed a 1% perillyl alcohol diet, and one group was fed a 2% perillyl alcohol diet. Rats from each diet group were matched into pair feeding groups.
Rats in the control group were pair fed against rats in the 2% POH diet group. Rats in the 1% POH diet group were allowed to eat as much as they wanted. After one month, rats in the 1% POH diet group were also pair fed against rats in 2% POH group. After two months of feeding, rats in all groups were allowed to eat as much as they wanted. The rats were allowed to eat as much as they wanted because the diurnal rhythm of HMGCoA reductase activity might be related to food intake.
The rats' body weights were measured twice a week. Perillyl alcohol diets were made once a week and replaced daily.
[…] About 1 ml blood was taken from each rat each time and collected in heparin (SIGMA) coated tube. For CoQ analysis, 0.5 ml blood was added to the CoQ6 standard. For cholesterol analysis the blood were spun down at 3,000 rpm for 10 minutes and the plasma were taken. By three months, all rats were killed.
Total cholesterol, HDL cholesterol and triglyceride levels in the rats' plasma were measured using diagnostic kits from SIGMA according to manufacturer's instructions. LDL cholesterol levels were calculated by Friedewald's equation. […]

M600B cells = assay: M600B cell growth inhibition (FIG. 4); format: cell-based; conditions: M600B (human) cells
Method: NIH3T3 (mouse embryo) cells were obtained from the American Type Culture Collection and were grown in Dulbecco's modified Eagle's medium supplemented with 10% calf serum. M600B immortalized human mammary epithelial cells (Stampfer, M.R., 1985, J. Tissue Culture Methods 9:107-115) were, obtained from Dr. Martha Stampfer and were grown in supplemented HCDB 170 medium (Hammond, et al. (1984) Proc. Natl. Acad. Sci U.S.A. 81:5435-5439), as described previously (Stampfer, et al. (1985) Proc. Natl. Acad. Sci U.S.A. 82:2394-2398; Eldridge, et al. (1989) Cancer Res. 49:4326-4331).
All cells were maintained in 100-mm dishes at 37° C. in a humidified 5% CO2 atmosphere. Viable cells were distinguished from nonviable cells by counting azure II/methylene blue-stained colonies 10 days after the cells were plated at a density of 100 cells per dish. Trypan blue exclusion was measured by incubating cells for 1 min with one drop of trypan blue per 10 ml of cells. Viable (colorless) and nonviable (blue) cells were then counted on a hemocytometer.
as §1

Compound: C=C(C)[C@@H]1CC=C(CO)CC1 [perillyl alcohol]
- weight loss ([1]; 0.5 g/kg/treatment oral bid, sesame oil): No weight loss
- course of weight loss ([1]; 1.0 gram/kg/treatment oral bid, after day 10): the weight loss leveled off
- average body weight lost ([1]; 1.0 gram/kg/treatment oral bid, diluted 1:1 in sesame oil, day 10): 3 g
- lethality ([1]; in PEG400, same dose levels): Lethality was observed
- rats that tolerated 5 days with weight loss ([2]; 100 mg total POH dose): 5 out of 5
- rats died within 24 hours ([2]; 200 mg total POH dose): 2 out of 5
- rats died within 24 hours ([2]; 300 mg total POH dose): 2 out of 5
- Rank order, inhibition of HT-29 tumor cell proliferation (HT29 cells; 1 = greatest inhibition, 5 = least inhibition): 1
- IC50 (HT29 cells; Homo sapiens, HT-29, read-out: IC50 HT29 tumor cell proliferation): 50 µM
- inhibition at 1000 µM (HT29 cells; Homo sapiens, HT-29, read-out: growth inhibition of HT29 cells): 80%
- HT29 cell growth (HT29 cells; colon adenocarcinoma cells): regression of cell growth
- Body Weight ([3]; 1% POH diet): 207 ± 3 g
- Heart Weight ([3]; 1% POH diet): 0.57 ± 0.05 g
- Liver Weight ([3]; 1% POH diet): 6.1 ± 0.3 g
- HDL Cholesterol ([3]; 1% POH diet, Kill): 37.6 ± 3.8 mg/dL
- Total Cholesterol ([3]; 1% POH diet, Kill): 47.7 ± 4.3 mg/dL
- Triglyceride ([3]; 1% POH diet, Kill): 29.8 ± 8.9 mg/dL
- LDL Cholesterol ([3]; 1% POH diet, Kill, Friedewald's equation): 4.1 ± 2.4 mg/dL
- HDL Cholesterol ([3]; 1% POH diet, WK3): 31.7 ± 2.3 mg/dL
- Total Cholesterol ([3]; 1% POH diet, WK3): 45.9 ± 4.2 mg/dL
- Triglyceride ([3]; 1% POH diet, WK3): 20.8 ± 5.2 mg/dL
- LDL Cholesterol ([3]; 1% POH diet, WK3, Friedewald's equation): 10.1 ± 3.1 mg/dL
- HDL Cholesterol ([3]; 1% POH diet, WK6): 33.1 ± 2.2 mg/dL
- Total Cholesterol ([3]; 1% POH diet, WK6): 41.0 ± 3.0 mg/dL
- Triglyceride ([3]; 1% POH diet, WK6): 29.5 ± 5.7 mg/dL
- LDL Cholesterol ([3]; 1% POH diet, WK6, Friedewald's equation): 2.0 ± 1.4 mg/dL
- HDL Cholesterol ([3]; 1% POH diet, WK9): 31.5 ± 2.6 mg/dL
- Total Cholesterol ([3]; 1% POH diet, WK9): 43.2 ± 4.9 mg/dL
- Triglyceride ([3]; 1% POH diet, WK9): 28.7 ± 5.7 mg/dL
- LDL Cholesterol ([3]; 1% POH diet, WK9, Friedewald's equation): 6.0 ± 4.0 mg/dL
- Body Weight ([3]; 2% POH diet): 198 ± 6 g
- Heart Weight ([3]; 2% POH diet): 0.57 ± 0.05 g
- Liver Weight ([3]; 2% POH diet): 6.2 ± 0.5 g
- HDL Cholesterol ([3]; 2% POH diet, Kill): 39.8 ± 4.0 mg/dL
- Total Cholesterol ([3]; 2% POH diet, Kill): 52.8 ± 6.8 mg/dL
- Triglyceride ([3]; 2% POH diet, Kill): 33.8 ± 14.9 mg/dL
- LDL Cholesterol ([3]; 2% POH diet, Kill, Friedewald's equation): 6.2 ± 1.8 mg/dL
- HDL Cholesterol ([3]; 2% POH diet, WK3): 31.4 ± 1.6 mg/dL
- Total Cholesterol ([3]; 2% POH diet, WK3): 44.2 ± 3.7 mg/dL
- Triglyceride ([3]; 2% POH diet, WK3): 17.2 ± 5.3 mg/dL
- LDL Cholesterol ([3]; 2% POH diet, WK3, Friedewald's equation): 9.4 ± 3.0 mg/dL
- HDL Cholesterol ([3]; 2% POH diet, WK6): 33.5 ± 3.6 mg/dL
- Total Cholesterol ([3]; 2% POH diet, WK6): 41.2 ± 5.0 mg/dL
- Triglyceride ([3]; 2% POH diet, WK6): 21.1 ± 5.7 mg/dL
- LDL Cholesterol ([3]; 2% POH diet, WK6, Friedewald's equation): 3.4 ± 2.2 mg/dL
- HDL Cholesterol ([3]; 2% POH diet, WK9): 30.7 ± 2.9 mg/dL
- Total Cholesterol ([3]; 2% POH diet, WK9): 40.7 ± 3.3 mg/dL
- Triglyceride ([3]; 2% POH diet, WK9): 18.4 ± 2.9 mg/dL
- LDL Cholesterol ([3]; 2% POH diet, WK9, Friedewald's equation): 6.4 ± 1.2 mg/dL
- LDL level versus HDL level ([3]; after 6 weeks of treatment): LDL level is reduced much more than the HDL level
- Triglyceride levels ([3]; after 6 weeks of treatment): dramatically reduced
- total cholesterol level ([3]; after 6 weeks of treatment): reduced
- inhibition of cell growth (M600B cells): significantly inhibited cell growth in a dose-dependent manner
